Key:
[1] = Cytotoxicity against human 293T cells expressing Gluc assessed as inhibition of cell proliferation at 20 uM after 24 hrs by CCK8 assay relative to control; type: cell-based; settings: 293T (HEK-293T) cells expressing Gluc
[2] = in vitro; settings: human, 293T cells expressing Gluc
Description: Selectivity index, ratio of CC50 for human 293T cells expressing Gluc to EC50 for Influenza A virus WSN/33(H1N1)

[3] = Cytotoxicity against human 293T cells expressing Gluc assessed as inhibition of cell proliferation after 24 hrs by CCK8 assay; type: cell-based; settings: 293T (HEK-293T) cells expressing Gluc
[4] = cells; settings: Influenza A virus, HEK-293T
Description: Antiviral activity against Influenza virus A/WSN/33(H1N1) infected in human 293T cells assessed as inhibition of viral replication preincubated for 2 hrs followed by viral infection measured after 24 hrs by luciferase reporter gene assay

Row | SMILES | inhibition at 24 h, 20 µM [1] [%] | selectivity ratio [2] | CC50 at 24 h [3] [µM] | EC50 [4] [µM]
1 | C[C@H]1O[C@@H](O[C@H]2CC[C@@]3(C)[C@@H](CC[C@]4(C)[C@@H]3C=CC3=C5CC(C)(C)CC[C@]5(CO)C(=O)C[C@]34C)[C@]2(C)CO)[C@H](O)[C@@H](O[C@@H]2O[C@H](CO)[C@@H](O)[C@H](O)[C@H]2O)[C@H]1O | 9 | – | – | –
2 | C[C@H]1O[C@@H](O[C@H]2CC[C@]3(C)[C@H]4C=C[C@]56OC[C@@]7(CCC(C)(C)C[C@H]75)[C@@H](O)C[C@@]6(C)[C@]4(C)CC[C@H]3C2(C)C)[C@H](O)[C@@H](O[C@@H]2O[C@H](CO)[C@@H](O)[C@H](O)[C@H]2O)[C@H]1O | 44.8 | 1.33 | 2.85 | 2.14
3 | C[C@H]1O[C@@H](O[C@H]2CC[C@@]3(C)[C@@H](CC[C@]4(C)[C@@H]3C=CC3=C5CC(C)(C)CC[C@]5(CO)[C@@H](O)C[C@]34C)[C@]2(C)CO)[C@H](O)[C@@H](O)[C@H]1O | 0 | 2.89 | 24.5 | 8.48
4 | C[C@H]1O[C@@H](O[C@H]2CC[C@@]3(C)[C@@H](CC[C@]4(C)[C@@H]3C=C[C@]35OC[C@@]6(CCC(C)(C)C[C@H]63)C(=O)C[C@]54C)[C@]2(C)CO)[C@H](O)[C@@H](O[C@@H]2O[C@H](CO)[C@@H](O)[C@H](O)[C@H]2O)[C@H]1O | 49.7 | 1.43 | 3.8 | 2.66
5 | CO[C@@H]1C=C2[C@@H]3CC(C)(C)CC[C@]3(CO)[C@@H](O)C[C@@]2(C)[C@]2(C)CC[C@H]3C(C)(C)[C@@H](O[C@@H]4O[C@H](CO[C@@H]5O[C@H](CO)[C@@H](O)[C@H](O)[C@H]5O)[C@@H](O[C@@H]5O[C@@H](C)[C@H](O)[C@@H](O)[C@H]5O)[C@H](O)[C@H]4O)CC[C@]3(C)[C@@H]12 | 0 | – | – | –
6 | C[C@@H]1O[C@@H](O[C@H]2[C@H](O)[C@@H](O)[C@H](O[C@H]3CC[C@@]4(C)[C@@H](CC[C@]5(C)[C@@H]4C=CC4=C6CC(C)(C)CC[C@]6(CO)[C@@H](O)[C@H](O)[C@]45C)[C@]3(C)CO)O[C@@H]2CO[C@@H]2O[C@H](CO)[C@@H](O)[C@H](O)[C@H]2O)[C@H](O)[C@H](O)[C@H]1O | 0 | > 26.1 | > 200 | 7.67
7 | C[C@H]1O[C@@H](O[C@H]2CC[C@@]3(C)[C@@H](CC[C@]4(C)[C@@H]3C=CC3=C5CC(C)(C)CC[C@]5(CO)C(=O)[C@H](O)[C@]34C)[C@]2(C)CO)[C@H](O)[C@@H](O[C@@H]2O[C@H](CO)[C@@H](O)[C@H](O)[C@H]2O)[C@H]1O | 0 | – | – | –
8 | C[C@@H]1O[C@@H](O[C@H]2[C@H](O)[C@@H](O)[C@H](O[C@H]3CC[C@]4(C)[C@H]5C=CC6=C7CC(C)(C)CC[C@]7(CO)[C@@H](O)[C@H](O)[C@@]6(C)[C@]5(C)CC[C@H]4C3(C)C)O[C@@H]2CO[C@@H]2O[C@H](CO)[C@@H](O)[C@H](O)[C@H]2O)[C@H](O)[C@H](O)[C@H]1O | 5.14 | > 19.8 | > 200 | 10.1
9 | C/C=C/C(=O)OC[C@H]1O[C@@H](O[C@H]2[C@@H](O)[C@@H](C)O[C@@H](O[C@H]3CC[C@@]4(C)[C@@H](CC[C@]5(C)[C@@H]4C=C[C@]46OC[C@@]7(CCC(C)(C)C[C@H]74)[C@@H](O)C[C@]65C)[C@]3(C)CO)[C@@H]2O)[C@H](O)[C@@H](O)[C@@H]1O | 44.2 | 0.79 | 7.02 | 8.92
10 | C[C@H]1O[C@@H](O[C@H]2CC[C@@]3(C)[C@@H](CC[C@]4(C)[C@@H]3C=CC3=C5C[C@@](C)(CO)CC[C@]5(CO)[C@@H](O)C[C@]34C)[C@]2(C)CO)[C@H](O)[C@@H](O[C@@H]2O[C@H](CO)[C@@H](O)[C@H](O)[C@H]2O)[C@H]1O | 5.87 | – | – | –
11 | C[C@H]1O[C@@H](O[C@H]2CC[C@]3(C)C4=CC=C5[C@@H]6CC(C)(C)CC[C@]6(CO)[C@H](O)C[C@@]5(C)[C@]4(C)CC[C@H]3[C@]2(C)CO)[C@H](O)[C@@H](O[C@@H]2O[C@H](CO)[C@@H](O)[C@H](O)[C@H]2O)[C@H]1O | 1.39 | 1.75 | 38.2 | 21.8
12 | C[C@@H]1O[C@@H](O[C@H]2[C@H](O)[C@@H](O)[C@H](O[C@H]3CC[C@@]4(C)[C@@H](CC[C@]5(C)[C@@H]4CC=C4[C@@H]6CC(C)(C)CC[C@]6(CO)[C@@H](O)C[C@]45C)[C@]3(C)CO)O[C@@H]2CO[C@@H]2O[C@H](CO)[C@@H](O)[C@H](O)[C@H]2O)[C@H](O)[C@H](O)[C@H]1O | 0 | > 11.2 | > 200 | 17.9
13 | C[C@H]1O[C@@H](O[C@H]2CC[C@]3(C)C4=CC=C5[C@@H]6CC(C)(C)CC[C@]6(CO)[C@@H](O)C[C@@]5(C)[C@]4(C)CC[C@H]3[C@]2(C)CO)[C@H](O)[C@@H](O[C@@H]2O[C@H](CO)[C@@H](O)[C@H](O)[C@H]2O)[C@H]1O | 1.39 | 1.19 | 18.9 | 15.8
14 | CO[C@@H]1C=C2[C@@H]3CC(C)(C)CCC3=C(O)C(=O)[C@@]2(C)[C@]2(C)CC[C@H]3[C@](C)(CO)[C@@H](O[C@@H]4O[C@H](C)[C@H](O)[C@H](O[C@@H]5O[C@H](CO)[C@@H](O)[C@H](O)[C@H]5O)[C@H]4O)CC[C@]3(C)[C@@H]12 | 0 | – | – | –
15 | NC(=O)c1ncn([C@@H]2O[C@H](CO)[C@@H](O)[C@H]2O)n1 [RIBAVIRIN] | 0 | > 11.4 | > 205 | 17.9

Reference: ChEMBL document CHEMBL4007499, “Anti-influenza triterpenoid saponins (saikosaponins) from the roots of Bupleurum marginatum var. stenophyllum” (Bioorg Med Chem Lett, 2017)
